Experimental data reported in PMC11239830, “Synthetic macrolides overcoming MLSBK-resistant pathogens” (Cell Discovery, 2024).
Like-named read-outs stand apart in the source and are kept apart here.

Tests used:
M. catarrhalis = assay: MIC, broth microdilution; format: cell-based, Moraxella catarrhalis; settings: Moraxella catarrhalis; M. catarrhalis 13L332, Ery-S; read-out: MIC
Experimental: MICs were determined by the microdilution method according to the Clinical and Laboratory Standards Institute guidelines. Briefly, the stock solution of compounds and the reference antibiotics were diluted 2-fold in sterile 96-well plates with cation-adjusted Mueller-Hinton broth, and mixed with CAMHB-containing bacteria to give a final inoculum of 5 × 10^5 CFU/mL for broth microdilution experiments. […] Finally, the 96-well plates were incubated at 37 °C for 16–20 h to observe and record the results. The lowest concentration at which no bacterial growth could be observed visually was identified as the MICs of the compounds. The assay for MICs was replicated at least three times.

S. aureus [1] = assay: MIC, broth microdilution; format: cell-based, Staphylococcus aureus
In short: (§1)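 Minimum inhibitory concentrations were measured by broth microdilution following CLSI guidelines. Plates were incubated at 37 °C for 16–20 h before results were read and recorded, and each determination was repeated at least three times.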

S. pneumoniae = assay: MIC, broth microdilution; format: cell-based, Streptococcus pneumoniae
In short: as §1

S. pyogenes = assay: MIC, broth microdilution; format: cell-based, Streptococcus pyogenes
In short: as §1

WT S. aureus ribosomes = assay: PURE in vitro translation inhibition assay; format: biochemical, Staphylococcus aureus; settings: mean ± SD
Experimental: (§2) To validate the in vitro activity of our compounds, we employed an in vitro reconstituted E. coli Protein synthesis Using a Recombinant Elements (PURE) translation system, substituting E. coli ribosomes with the purified S. aureus ribosomes.
(§3) 5 μL of PURE reaction mix that translates a gene encoding the Nanoluc luciferase was set up in the presence or absence of tested compounds. Protein synthesis was initiated by incubating reactions at 37 °C for 60 min and stopped by placing on ice for 5 min. Luciferase activity was quantified using the Nano-Glo luciferase assay system and read on a GloMax 20/20 luminometer (Promega, USA). For each compound, the in vitro translation inhibition assay was performed in three biological triplicates over a range of concentrations from 0.001 μM to 1000 μM. A compound-free control was used to normalize luminescence measurements. The calculated luminescence percentages were plotted against compound concentrations on a semilog scale using GraphPad Prism.

[2] = test system: 15B196 S. aureus ribosomes (A2058-methylated); assay: PURE in vitro translation inhibition assay; format: biochemical, Staphylococcus aureus; settings: mean ± SD
Experimental: as §2, §3

S. aureus [3] = assay: MICs and MBCs against selected S. aureus isolates; format: cell-based, Staphylococcus aureus
[4] = CCK-8 assay for cytotoxicity; format: cell-based, human; settings: human, HEK293T cells, HEK293T cell viability
Experimental: HepG2 cells (6 × 10^3) and HEK293T cells (4 × 10^3) were seeded into 96-well plates in 90 μL of DMEM medium containing 10% FBS per well. […] After overnight incubation, the test compound stock solution was diluted with DMEM medium containing 10% FBS to every target concentration, and 10 μL of each was added to each well. Three parallel experiments were set up for each compound. After incubation for 48 h, 10 μL of cell counting kit-8 (CCK-8) reagent was added to each well in sequence according to the manufacturer’s instructions. […] This experiment was independently repeated three times. The data were processed by GraphPad Prism.

[5] = Staphylococcus aureus, All S. aureus (24)
[6] = Staphylococcus aureus, i-MLSB S. aureus (10)

CC[C@H]1OC(=O)[C@H](C)C(=O)[C@H](C)[C@@H](O[C@@H]2O[C@H](C)C[C@H](N(C)C)[C@H]2O)[C@](C)(OC)C[C@@H](C)C(=O)[C@H](C)[C@H]2N(CCCCn3cnc(-c4cccnc4)c3)C(=O)O[C@]12C [telithromycin, reference compound]
> 256 µg/mL: MIC (S. aureus [1]; S. aureus 21B200, Clinical, MRSA, c-ermB) | MIC (S. aureus [1]; S. aureus 21B207, Clinical, MRSA, c-ermB) | MIC (S. aureus [1]; S. aureus 21C174, Clinical, MSSA, c-ermB) | MIC (S. aureus [1]; S. aureus 21D112, Clinical, MSSA, c-ermB) | MIC (S. aureus [1]; S. aureus 21F198, Clinical, MRSA, c-ermB) | MIC (S. aureus [1]; S. aureus 21F206, Clinical, MSSA, c-ermB) | MIC (S. aureus [1]; S. aureus 21P191, Clinical, MSSA, c-ermC) | MIC (S. aureus [1]; S. aureus 21P407, Clinical, MRSA, c-ermB) | MIC (S. aureus [1]; S. aureus 21R216, Clinical, MSSA, c-ermC) | MIC (S. aureus [1]; S. aureus 21T141, Clinical, MRSA, c-ermB) | MIC90 (S. aureus [1]; [5]) | MIC50 (S. aureus [1]; Staphylococcus aureus, c-MLSB (constitutive) S. aureus (13)) | MIC90 (S. aureus [1]; Staphylococcus aureus, MRSA (13)) | MIC90 (S. aureus [1]; Staphylococcus aureus, MSSA (10)) | MIC (S. aureus [3]; Staphylococcus aureus, MSSA, strain 8, MSSA, c-ermB) | MIC (S. aureus [3]; Staphylococcus aureus, MSSA, strain 9, MSSA, c-ermB)
8 µg/mL: MIC (S. pyogenes; S. pyogenes 21D184, Clinical, c-ermB) | MIC (S. pyogenes; S. pyogenes 21D199, Clinical, c-ermB) | MIC (S. pyogenes; S. pyogenes 21W186, Clinical, c-ermTR) | MIC (S. aureus [3]; Staphylococcus aureus, MRSA, strain 6, MRSA, c-ermB, read-out: MIC) | MIC (S. aureus [3]; Staphylococcus aureus, MRSA, strain 7, MRSA, c-ermB, read-out: MIC)
0.06 µg/mL: MIC (S. pneumoniae; S. pneumoniae 21Q352, Clinical, i-MLSB)
0.016 µg/mL: MIC (S. pneumoniae; S. pneumoniae 21X435, Clinical) | MIC (S. pyogenes; S. pyogenes 01-968, Clinical, i-ermB)
0.5 µg/mL: MIC (S. aureus [1]; S. aureus 21P404, Clinical, MSSA, i-ermC) | MIC50 (S. aureus [1]; Staphylococcus aureus, MSSA, MSSA (10)) | MIC (S. pneumoniae; Streptococcus pneumoniae, S. pneumoniae PU09, mef, read-out: MIC) | MIC (S. pyogenes; S. pyogenes 12-207, Clinical, mef)
> 1 µg/mL: MBC (S. aureus [3]; Staphylococcus aureus, MRSA, strain 4, MRSA, i-ermA, read-out: MBC) | MBC (S. aureus [3]; Staphylococcus aureus, S. aureus ATCC29213, read-out: MBC) | MBC (S. aureus [3]; Staphylococcus aureus, strain 3, MSSA, i-ermC, read-out: MBC) | MBC (S. aureus [3]; strain 2, MSSA, i-ermC)
0.03 µg/mL: MIC (S. pneumoniae; S. pneumoniae 21Q353, Clinical, i-MLSB)
32 µg/mL: MIC (S. aureus [1]; S. aureus 15B196, c-ermB)
> 100 µM: CC50 at 48 h [4]
> 128 µg/mL: MBC (S. aureus [3]; Staphylococcus aureus, MRSA, strain 10, MRSA, c-ermB, read-out: MBC)
0.008 µg/mL: MIC (S. pneumoniae; S. pneumoniae ATCC49619)
1 µg/mL: MIC (S. pneumoniae; S. pneumoniae PU09, mef) | MIC (S. pyogenes; S. pyogenes 21K003, Clinical, mef)
128 µg/mL: MIC (S. aureus [1]; S. aureus 15B196, Clinical, MRSA, c-ermB) | MIC (S. aureus [1]; S. aureus 21N354, Clinical, MRSA, c-ermB) | MIC50 (S. aureus [1]; Staphylococcus aureus, MRSA, MRSA (13)) | MIC (S. aureus [3]; Staphylococcus aureus, MRSA, strain 11, MRSA, c-ermB)
16 µg/mL: MIC (S. aureus [1]; S. aureus 21Q253, Clinical, MRSA, c-ermB) | MIC50 (S. aureus [1]; [5]) | MIC (S. pyogenes; S. pyogenes 21C303, Clinical, c-ermB) | MIC (S. pyogenes; S. pyogenes 21D200, Clinical, c-ermB) | MIC (S. pyogenes; S. pyogenes 21M063, Clinical, c-ermB) | MIC (S. aureus [3]; Staphylococcus aureus, MRSA, strain 10, MRSA, c-ermB, read-out: MIC)
0.12 µg/mL: MIC (S. aureus [1]; S. aureus 21C187, Clinical, MRSA, i-ermA) | MIC (S. aureus [1]; S. aureus 21D115, Clinical, MSSA, i-ermC) | MIC (S. aureus [1]; S. aureus PU32, Clinical, MRSA, i-ermA) | MIC (S. pneumoniae; S. pneumoniae 21C315, Clinical, c-ermB) | MIC (S. pneumoniae; S. pneumoniae 21M277, Clinical, c-ermB) | MIC (S. pneumoniae; S. pneumoniae 21W257, Clinical, c-ermB, mef) | MIC (S. aureus [3]; Staphylococcus aureus, ATCC29213, S. aureus ATCC29213 (Table S10), read-out: MIC) | MIC (S. aureus [3]; Staphylococcus aureus, MRSA, strain 4, MRSA, i-ermA, read-out: MIC) | MIC (S. aureus [3]; Staphylococcus aureus, MSSA, strain 2, MSSA, i-ermC, read-out: MIC) | MIC (S. aureus [3]; Staphylococcus aureus, MSSA, strain 3, MSSA, i-ermC, read-out: MIC)
0.38 ± 0.13 µM: IC50 (WT S. aureus ribosomes)
> 2 µg/mL: MBC (S. aureus [3]; Staphylococcus aureus, MRSA, strain 1, MRSA, i-ermA, read-out: MBC) | MBC (S. aureus [3]; Staphylococcus aureus, MRSA, strain 5, MRSA, i-ermC, read-out: MBC)
0.25 µg/mL: MIC (M. catarrhalis) | MIC (S. aureus [1]; S. aureus 21B212, Clinical, MSSA, i-ermC) | MIC (S. aureus [1]; S. aureus 21C173, Clinical, MSSA, i-ermC) | MIC (S. aureus [1]; S. aureus 21F207, Clinical, MRSA, i-ermC) | MIC (S. aureus [1]; S. aureus 21K194, Clinical, MSSA, i-ermC) | MIC (S. aureus [1]; S. aureus 21X388, Clinical, i-ermA (MRSA in Table S9, MSSA in Fig. 2a)) | MIC (S. aureus [1]; S. aureus 21Y223, Clinical, MRSA, i-ermC) | MIC (S. aureus [1]; S. aureus ATCC29213) | MIC50 (S. aureus [1]; [6]) | MIC90 (S. aureus [1]; [6]) | MIC (S. pneumoniae; S. pneumoniae 21D016, Clinical, c-ermB, mef) | MIC (S. pneumoniae; S. pneumoniae 21D020, Clinical, c-ermB, mef) | MIC (S. aureus [3]; Staphylococcus aureus, MRSA, strain 1, MRSA, i-ermA, read-out: MIC) | MIC (S. aureus [3]; Staphylococcus aureus, MRSA, strain 5, MRSA, i-ermC, read-out: MIC)
> 10 µM: IC50 [2]
4 µg/mL: MIC (S. pneumoniae; Streptococcus pneumoniae, S. pneumoniae 05O173, c-ermB, mef, read-out: MIC)
> 64 µg/mL: MBC (S. aureus [3]; Staphylococcus aureus, MRSA, strain 6, MRSA, c-ermB, read-out: MBC) | MBC (S. aureus [3]; Staphylococcus aureus, MRSA, strain 7, MRSA, c-ermB, read-out: MBC)
64 µg/mL: MIC (S. aureus [1]; Staphylococcus aureus, S. aureus 15B196, c-ermB, read-out: MIC)
